Here are results for 27 molecules from the NIST ThermoML archive (doi:10.1016/j.jct.2005.04.010).

Numbers after ± are expanded uncertainties.

This series in a line: activity coefficient (dimensionless); of the first substance listed, at infinite dilution; xn = mol fraction of the nth substance listed. The following applies: Liquid, x1 = 0.

Take `Cc1ccccc1` [toluene] + CCCCCC[n+]1ccn(C)c1.O=S(=O)([N-]S(=O)(=O)C(F)(F)F)C(F)(F)F: the activity coefficient is, setting by setting: (303.15 K, Chromatography) 1.01 ± 0.03; (313.15 K, Chromatography) 1.03 ± 0.03; (323.15 K, Chromatography) 1.05 ± 0.03; (333.15 K, Chromatography) 1.08 ± 0.03.

On to `O` [water] + CCCCCCCCn1cc[n+](C)c1.O=S(=O)([N-]S(=O)(=O)C(F)(F)F)C(F)(F)F, for which the activity coefficient by setting is: (303.15 K, Chromatography) 3.89 ± 0.18; (303.15 K, dilutor) 3.76 ± 0.19; (313.15 K, Chromatography) 3.52 ± 0.16; (313.15 K, dilutor) 3.51 ± 0.18; (323.15 K, Chromatography) 3.03 ± 0.14; (323.15 K, dilutor) 3.29 ± 0.16. Also, the activity coefficient (333.15 K, Chromatography) turned out to be 2.58 ± 0.12.

Turning to `CCCCC` [pentane] + CCCCCCCCn1cc[n+](C)c1.O=S(=O)([N-]S(=O)(=O)C(F)(F)F)C(F)(F)F, the activity coefficient reads like this: (303.15 K, Chromatography) 4.07 ± 0.19; (303.15 K, dilutor) 3.98 ± 0.2; (313.15 K, Chromatography) 3.94 ± 0.18; (313.15 K, dilutor) 3.92 ± 0.2; (323.15 K, Chromatography) 3.78 ± 0.17; (323.15 K, dilutor) 3.87 ± 0.19. In addition, the activity coefficient runs as follows: (333.15 K, Chromatography) 3.6 ± 0.16; (333.15 K, dilutor) 3.84 ± 0.19.

`c1ccccc1` [benzene] + CCCCCC[n+]1ccn(C)c1.O=S(=O)([N-]S(=O)(=O)C(F)(F)F)C(F)(F)F: the activity coefficient (303.15 K, Chromatography) came out at 0.75 ± 0.03; the activity coefficient (313.15 K, Chromatography) came to 0.76 ± 0.03; the activity coefficient (323.15 K, Chromatography) turned out to be 0.78 ± 0.03; the activity coefficient (333.15 K, Chromatography) was 0.79 ± 0.03.

In the case of `C1=CCCC1` [cyclopentene] + CCCCCCCCn1cc[n+](C)c1.O=S(=O)([N-]S(=O)(=O)C(F)(F)F)C(F)(F)F, the activity coefficient turned out to be 1.86 ± 0.09 (303.15 K, dilutor); 1.84 ± 0.09 (313.15 K, dilutor); 1.81 ± 0.09 (323.15 K, dilutor); 1.78 ± 0.09 (333.15 K, dilutor).

For `C=CCCCCCC` [oct-1-ene] + CCCC[N+]1(C)CCCC1.O=S(=O)([N-]S(=O)(=O)C(F)(F)F)C(F)(F)F, the activity coefficient (303.15 K, dilutor) amounted to 15 ± 0.8; the activity coefficient (313.15 K, dilutor) is 13.9 ± 0.7; the activity coefficient (323.15 K, dilutor) turned out to be 13.3 ± 0.7; the activity coefficient (333.15 K, dilutor) worked out at 13.2 ± 0.7.

With `CCC(C)=O` [butanone] + CCCC[N+]1(C)CCCC1.O=S(=O)([N-]S(=O)(=O)C(F)(F)F)C(F)(F)F, the activity coefficient is 0.52 ± 0.03 (303.15 K, dilutor); 0.53 ± 0.03 (313.15 K, dilutor); 0.55 ± 0.03 (323.15 K, dilutor); 0.56 ± 0.03 (333.15 K, dilutor).

On to `CC(C)O` [propan-2-ol] + CCCC[N+]1(C)CCCC1.O=S(=O)([N-]S(=O)(=O)C(F)(F)F)C(F)(F)F, for which the activity coefficient (303.15 K, dilutor) came to 2.11 ± 0.11; the activity coefficient (313.15 K, dilutor) is 1.92 ± 0.1; the activity coefficient (323.15 K, dilutor) is 1.77 ± 0.09; the activity coefficient (333.15 K, dilutor) came out at 1.63 ± 0.08.

For `C=CCCCCC` [1-heptene] + CCCCCCCCn1cc[n+](C)c1.O=S(=O)([N-]S(=O)(=O)C(F)(F)F)C(F)(F)F, the activity coefficient worked out at 4.29 ± 0.2 (303.15 K, Chromatography); 4.33 ± 0.22 (303.15 K, dilutor); 4.23 ± 0.19 (313.15 K, Chromatography); 4.26 ± 0.21 (313.15 K, dilutor); 4.13 ± 0.19 (323.15 K, Chromatography); 4.2 ± 0.21 (323.15 K, dilutor). Besides, the activity coefficient was 4.13 ± 0.19 (333.15 K, Chromatography) and 4.15 ± 0.21 (333.15 K, dilutor).

With `C1CCCCC1` [cyclohexane] + CCCCCCCCn1cc[n+](C)c1.O=S(=O)([N-]S(=O)(=O)C(F)(F)F)C(F)(F)F, the activity coefficient came to 3.64 ± 0.17 (303.15 K, Chromatography); 3.67 ± 0.18 (303.15 K, dilutor); 3.52 ± 0.16 (313.15 K, Chromatography); 3.59 ± 0.18 (313.15 K, dilutor); 3.36 ± 0.15 (323.15 K, Chromatography); 3.48 ± 0.17 (323.15 K, dilutor). For the same molecule, the activity coefficient reads like this: (333.15 K, Chromatography) 3.29 ± 0.15; (333.15 K, dilutor) 3.39 ± 0.17.

Regarding `C1CCCCC1` [cyclohexane] + CCCCCC[n+]1ccn(C)c1.O=S(=O)([N-]S(=O)(=O)C(F)(F)F)C(F)(F)F, the activity coefficient (303.15 K, Chromatography) was 5.48 ± 0.25; the activity coefficient (303.15 K, dilutor) was determined as 5.29 ± 0.26; the activity coefficient (313.15 K, Chromatography) is 5.15 ± 0.24; the activity coefficient (313.15 K, dilutor) came out at 5.01 ± 0.25; the activity coefficient (323.15 K, Chromatography) turned out to be 4.9 ± 0.22; the activity coefficient (323.15 K, dilutor) is 4.78 ± 0.24. Moreover, the activity coefficient (333.15 K, Chromatography) worked out at 4.75 ± 0.22 and the activity coefficient (333.15 K, dilutor) was 4.68 ± 0.23.

`C=CCCCC` [hex-1-ene] + CCCCCC[n+]1ccn(C)c1.O=S(=O)([N-]S(=O)(=O)C(F)(F)F)C(F)(F)F: the activity coefficient amounted to 4.71 ± 0.21 (303.15 K, Chromatography); 4.64 ± 0.23 (303.15 K, dilutor); 4.61 ± 0.21 (313.15 K, Chromatography); 4.56 ± 0.23 (313.15 K, dilutor); 4.48 ± 0.2 (323.15 K, Chromatography); 4.48 ± 0.22 (323.15 K, dilutor). Also, the activity coefficient is, setting by setting: (333.15 K, Chromatography) 4.44 ± 0.2; (333.15 K, dilutor) 4.39 ± 0.22.

As to `C1=CCCCC1` [cyclohexene] + CCCCCCCCn1cc[n+](C)c1.O=S(=O)([N-]S(=O)(=O)C(F)(F)F)C(F)(F)F, the activity coefficient by setting is: (303.15 K, Chromatography) 2.41 ± 0.11; (303.15 K, dilutor) 2.44 ± 0.12; (313.15 K, Chromatography) 2.38 ± 0.11; (313.15 K, dilutor) 2.38 ± 0.12; (323.15 K, Chromatography) 2.31 ± 0.1; (323.15 K, dilutor) 2.33 ± 0.12. Also, the activity coefficient was 2.29 ± 0.1 (333.15 K, Chromatography) and 2.28 ± 0.11 (333.15 K, dilutor).

On to `C=CCCC` [1-pentene] + CCCC[N+]1(C)CCCC1.O=S(=O)([N-]S(=O)(=O)C(F)(F)F)C(F)(F)F, for which the activity coefficient is, setting by setting: (303.15 K, dilutor) 4.95 ± 0.25; (313.15 K, dilutor) 4.91 ± 0.25; (323.15 K, dilutor) 4.81 ± 0.24; (333.15 K, dilutor) 4.8 ± 0.24.

On to `C=CCCC` [1-pentene] + CCCCCCCCn1cc[n+](C)c1.O=S(=O)([N-]S(=O)(=O)C(F)(F)F)C(F)(F)F, for which the activity coefficient is, setting by setting: (303.15 K, Chromatography) 2.52 ± 0.11; (303.15 K, dilutor) 2.54 ± 0.13; (313.15 K, Chromatography) 2.53 ± 0.11; (313.15 K, dilutor) 2.53 ± 0.13; (323.15 K, Chromatography) 2.46 ± 0.11; (323.15 K, dilutor) 2.53 ± 0.13. The activity coefficient amounted to 2.45 ± 0.11 (333.15 K, Chromatography) and 2.52 ± 0.13 (333.15 K, dilutor).

On to `CCOC(C)(C)C` [2-ethoxy-2-methylpropane] + CCCCCC[n+]1ccn(C)c1.O=S(=O)([N-]S(=O)(=O)C(F)(F)F)C(F)(F)F, for which the activity coefficient by setting is: (303.15 K, Chromatography) 2.69 ± 0.12; (313.15 K, Chromatography) 2.74 ± 0.12; (323.15 K, Chromatography) 2.76 ± 0.13; (333.15 K, Chromatography) 2.82 ± 0.13.

Regarding `CCCCCCCC` [octane] + CCCCCCCCn1cc[n+](C)c1.O=S(=O)([N-]S(=O)(=O)C(F)(F)F)C(F)(F)F, the activity coefficient is, setting by setting: (303.15 K, Chromatography) 8.92 ± 0.41; (313.15 K, Chromatography) 8.43 ± 0.39; (323.15 K, Chromatography) 8.14 ± 0.37; (333.15 K, Chromatography) 7.82 ± 0.36.

With `CCO` [ethanol] + CCCC[N+]1(C)CCCC1.O=S(=O)([N-]S(=O)(=O)C(F)(F)F)C(F)(F)F, the activity coefficient reads like this: (303.15 K, dilutor) 1.84 ± 0.09; (313.15 K, dilutor) 1.73 ± 0.09; (323.15 K, dilutor) 1.63 ± 0.08; (333.15 K, dilutor) 1.5 ± 0.08.

For `CCCCC` [pentane] + CCCC[N+]1(C)CCCC1.O=S(=O)([N-]S(=O)(=O)C(F)(F)F)C(F)(F)F, the activity coefficient by setting is: (303.15 K, dilutor) 9.22 ± 0.46; (313.15 K, dilutor) 9.18 ± 0.46; (323.15 K, dilutor) 8.62 ± 0.43; (333.15 K, dilutor) 8.29 ± 0.41.

For `Cc1cccc(C)c1` [1,3-dimethylbenzene] + CCCCCCCCn1cc[n+](C)c1.O=S(=O)([N-]S(=O)(=O)C(F)(F)F)C(F)(F)F, the activity coefficient is, setting by setting: (303.15 K, Chromatography) 1.13 ± 0.03; (313.15 K, Chromatography) 1.15 ± 0.04; (323.15 K, Chromatography) 1.17 ± 0.04; (333.15 K, Chromatography) 1.19 ± 0.04.

Take `CO` [methanol] + CCCCCC[n+]1ccn(C)c1.O=S(=O)([N-]S(=O)(=O)C(F)(F)F)C(F)(F)F: the activity coefficient reads like this: (303.15 K, Chromatography) 1.3 ± 0.04; (313.15 K, Chromatography) 1.19 ± 0.04; (313.15 K, dilutor) 1.16 ± 0.06; (323.15 K, Chromatography) 1.1 ± 0.03; (323.15 K, dilutor) 1.14 ± 0.06; (333.15 K, Chromatography) 1.02 ± 0.03. The activity coefficient (333.15 K, dilutor) was determined as 1.05 ± 0.05.

As to `Cc1ccccc1` [toluene] + CCCCCCCCn1cc[n+](C)c1.O=S(=O)([N-]S(=O)(=O)C(F)(F)F)C(F)(F)F, the activity coefficient amounted to 0.82 ± 0.03 (303.15 K, Chromatography); 0.83 ± 0.03 (313.15 K, Chromatography); 0.85 ± 0.03 (323.15 K, Chromatography); 0.85 ± 0.03 (333.15 K, Chromatography).

On to `CO` [methanol] + CCCCCCCCn1cc[n+](C)c1.O=S(=O)([N-]S(=O)(=O)C(F)(F)F)C(F)(F)F, for which the activity coefficient by setting is: (303.15 K, Chromatography) 1.23 ± 0.04; (313.15 K, Chromatography) 1.14 ± 0.03; (323.15 K, Chromatography) 1.03 ± 0.03; (333.15 K, Chromatography) 0.96 ± 0.03.

With `C1CCCC1` [cyclopentane] + CCCCCCCCn1cc[n+](C)c1.O=S(=O)([N-]S(=O)(=O)C(F)(F)F)C(F)(F)F, the activity coefficient (303.15 K, dilutor) came to 2.68 ± 0.13; the activity coefficient (313.15 K, dilutor) was found to be 2.64 ± 0.13; the activity coefficient (323.15 K, dilutor) worked out at 2.59 ± 0.13; the activity coefficient (333.15 K, dilutor) was found to be 2.56 ± 0.13.

For `c1ccccc1` [benzene] + CCCC[N+]1(C)CCCC1.O=S(=O)([N-]S(=O)(=O)C(F)(F)F)C(F)(F)F, the activity coefficient reads like this: (303.15 K, dilutor) 0.84 ± 0.04; (313.15 K, dilutor) 0.86 ± 0.04; (323.15 K, dilutor) 0.88 ± 0.04; (333.15 K, dilutor) 0.89 ± 0.04.

In the case of `CCCO` [propan-1-ol] + CCCCCC[n+]1ccn(C)c1.O=S(=O)([N-]S(=O)(=O)C(F)(F)F)C(F)(F)F, the activity coefficient reads like this: (303.15 K, Chromatography) 1.9 ± 0.08; (313.15 K, Chromatography) 1.71 ± 0.07; (323.15 K, Chromatography) 1.57 ± 0.06; (333.15 K, Chromatography) 1.45 ± 0.05.

Consider `C1CCCCC1` [cyclohexane] + CCCC[N+]1(C)CCCC1.O=S(=O)([N-]S(=O)(=O)C(F)(F)F)C(F)(F)F, for which the activity coefficient runs as follows: (303.15 K, dilutor) 8.75 ± 0.44; (313.15 K, dilutor) 8.43 ± 0.42; (323.15 K, dilutor) 7.91 ± 0.4; (333.15 K, dilutor) 7.42 ± 0.37.
